Measured values published in US7994140B2, “Classes of compounds that interact with GPCRs” (Alchemia Limited, priority 2002, dated 2011).

Each molecule was assayed against T1, MC4 (Homo sapiens, UniProt P32245) (assay: GPCR radioligand binding (RLB) assay, melanocortin MC4, [125I]NDP-αMSH). Details: 10 micromolar compound; recombinant human receptor membranes (HEK 293).
T1 construct: purchased Perkin Elmer BioSignal; host or cells: HEK 293
Outline: (§1)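 Competition binding against radioligand ([125I]NDP-αMSH for MC4, [125I]SST-14 for SST5) on membranes of HEK 293 cells carrying the human receptor; buffer and incubation time optimized per receptor. Filtration through 0.5% PEI-treated glass fiber, washing, then scintillation counting.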

T1 sequence (P32245 whole entry): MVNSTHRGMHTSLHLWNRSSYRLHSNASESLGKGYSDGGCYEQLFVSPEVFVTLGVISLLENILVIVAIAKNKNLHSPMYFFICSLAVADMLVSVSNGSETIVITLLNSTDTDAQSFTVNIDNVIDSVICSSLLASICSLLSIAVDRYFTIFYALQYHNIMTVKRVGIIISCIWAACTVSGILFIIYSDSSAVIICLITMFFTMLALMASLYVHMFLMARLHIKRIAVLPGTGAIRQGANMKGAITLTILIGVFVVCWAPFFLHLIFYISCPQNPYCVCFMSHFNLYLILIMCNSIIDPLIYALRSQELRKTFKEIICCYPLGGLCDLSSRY

| Structure (SMILES) | MC4 inhibition at 10 micromolar |
| --- | --- |
| CSC1OC(COC(=O)CCC2CNc3ccccc32)C(O)C(OCc2cccc(N)c2)C1NCc1ccccc1 (stereo not drawn) [Compound 311] | + (Indicates inhibition greater than . . . 50%) |
| CSC1OC(COCc2ccccc2)C(O)C(OCc2ccc(-c3ccccc3)cc2)C1NC(=O)CCN (stereo not drawn) [Compound 169] | + (Indicates inhibition greater than . . . 50%) |
| CSC1OC(COCc2ccc(Cl)cc2)C(O)C(OCc2ccc(-c3ccccc3)cc2)C1NC(=O)CCCN (stereo not drawn) [Compound 177] | + (Indicates inhibition greater than . . . 50%) |
| CSC1OC(COCc2ccc3ccccc3c2)C(O)C(OCc2ccc(Cl)cc2)C1NC(=O)CN (stereo not drawn) [Compound 161] | + (Indicates inhibition greater than . . . 50%) |
| CSC1O[C@H](COCc2cccc(N)c2)[C@@H](O)[C@H](OCc2ccc(Cl)cc2)[C@H]1NC(=O)Cc1c[nH]c2ccccc12 (stereo partly drawn) [Compound 341] | + (Indicates inhibition greater than . . . 50%) |
| CSC1OC(COCc2ccccc2)C(O)C(OCc2ccc(Cl)cc2)C1NC(=O)CNC(=N)N (stereo not drawn) [Compound 144] | + (Indicates inhibition greater than . . . 50%) |
| CSC1OC(COCc2ccc3ccccc3c2)C(O)C(OCc2ccc(Cl)cc2)C1NC(=O)CNC(=N)N (stereo not drawn) [Compound 162] | + (Indicates inhibition greater than . . . 50%) |
| CSC1OC(COCc2ccc(Cl)cc2)C(O)C(OCc2ccc3ccccc3c2)C1NC(=O)CN (stereo not drawn) [Compound 197] | + (Indicates inhibition greater than . . . 50%) |
| CSC1OC(COCc2ccc3ccccc3c2)C(O)C(OCc2ccc3ccccc3c2)C1NC(=O)CCNC(=N)N (stereo not drawn) [Compound 212] | + (Indicates inhibition greater than . . . 50%) |
| CSC1OC(COCc2ccccc2)C(O)C(OCc2ccc3ccccc3c2)C1NC(=O)CCNC(=N)N (stereo not drawn) [Compound 194] | + (Indicates inhibition greater than . . . 50%) |
| CSC1O[C@H](COCc2ccccc2)[C@@H](O)[C@H](OCc2cccc(N)c2)[C@H]1NC(=O)CCC1CNc2ccccc21 (stereo partly drawn) [Compound 320] | + (Indicates inhibition greater than . . . 50%) |
| CSC1OC(COCc2ccccc2)C(O)C(OCc2ccccc2)C1NC(=O)CCNC(=N)N (stereo not drawn) [Compound 122] | + (Indicates inhibition greater than . . . 50%) |
| COC[C@H]1OC(OCc2ccccc2)[C@H](NC(=O)CCNC(=N)N)[C@@H](OCc2ccc(-c3ccccc3)cc2)[C@@H]1O (stereo partly drawn) [Compound 6] | + (Indicates inhibition greater than . . . 50%) |
| CSC1OC(COCc2ccc(-c3ccccc3)cc2)C(O)C(OCc2ccccc2)C1NC(=O)CCN (stereo not drawn) [Compound 133] | + (Indicates inhibition greater than . . . 50%) |
| CSC1OC(COCc2ccc(-c3ccccc3)cc2)C(O)C(OCc2ccc(-c3ccccc3)cc2)C1NC(=O)CCNC(=N)N (stereo not drawn) [Compound 182] | + (Indicates inhibition greater than . . . 50%) |
| COC1C(O)C(COCc2ccc(-c3ccccc3)cc2)OC(OCc2ccc(Cl)cc2)C1NC(=O)CCCNC(=N)N (stereo not drawn) [Compound 86] | + (Indicates inhibition greater than . . . 50%) |
| CSC1OC(COCc2ccc(-c3ccccc3)cc2)C(O)C(OCc2ccc(Cl)cc2)C1NC(=O)CN (stereo not drawn) [Compound 155] | + (Indicates inhibition greater than . . . 50%) |
| CSC1OC(COCc2ccc3ccccc3c2)C(O)C(OCc2ccc(Cl)cc2)C1NC(=O)CCCN (stereo not drawn) [Compound 165] | + (Indicates inhibition greater than . . . 50%) |

These molecules were tested against T2, SST5 (Homo sapiens, UniProt P35346) (assay: GPCR radioligand binding (RLB) assay, somatostatin SST5, [125I]SST-14). Details: 10 micromolar compound; Example Library 8.
T2 construct: purchased Perkin Elmer BioSignal; host or cells: HEK 293
T2 sequence (P35346 whole entry): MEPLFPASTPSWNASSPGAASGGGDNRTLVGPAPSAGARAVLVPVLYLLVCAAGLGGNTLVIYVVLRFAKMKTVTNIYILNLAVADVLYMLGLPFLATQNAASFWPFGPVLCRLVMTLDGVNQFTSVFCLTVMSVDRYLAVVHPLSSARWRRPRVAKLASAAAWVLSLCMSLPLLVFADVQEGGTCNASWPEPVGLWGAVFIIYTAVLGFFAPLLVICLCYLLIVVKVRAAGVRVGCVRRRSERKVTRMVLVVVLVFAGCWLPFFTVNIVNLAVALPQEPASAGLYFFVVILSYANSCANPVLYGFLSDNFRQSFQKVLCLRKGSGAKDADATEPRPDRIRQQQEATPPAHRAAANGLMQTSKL
Outline: as §1

| Structure (SMILES) | SSTS inhibition at 10 micromolar |
| --- | --- |
| CSC1O[C@H](COCc2cccc(N)c2)[C@@H](O)[C@H](OCc2ccc(Cl)cc2)[C@H]1NC(=O)Cc1c[nH]c2ccccc12 (stereo partly drawn) [Compound 341] | + (Indicates inhibition greater than . . . 50%) |

Same assay, conditions: 10 micromolar compound; recombinant human receptor membranes (HEK 293)

| Structure (SMILES) | SST5 inhibition at 10 micromolar |
| --- | --- |
| CSC1OC(COC(=O)CCC2CNc3ccccc32)C(O)C(OCc2cccc(N)c2)C1NCc1ccccc1 (stereo not drawn) [Compound 311] | + (Indicates inhibition greater than . . . 50%) |
| CSC1OC(COCc2ccccc2)C(O)C(OCc2ccc(-c3ccccc3)cc2)C1NC(=O)CCN (stereo not drawn) [Compound 169] | + (Indicates inhibition greater than . . . 50%) |
| CSC1OC(COCc2ccc(Cl)cc2)C(O)C(OCc2ccc(-c3ccccc3)cc2)C1NC(=O)CCCN (stereo not drawn) [Compound 177] | + (Indicates inhibition greater than . . . 50%) |
| CSC1OC(COCc2ccc3ccccc3c2)C(O)C(OCc2ccc(Cl)cc2)C1NC(=O)CN (stereo not drawn) [Compound 161] | + (Indicates inhibition greater than . . . 50%) |
| CSC1OC(COCc2ccccc2)C(O)C(OCc2ccc(Cl)cc2)C1NC(=O)CNC(=N)N (stereo not drawn) [Compound 144] | + (Indicates inhibition greater than . . . 50%) |
| CSC1OC(COCc2ccc3ccccc3c2)C(O)C(OCc2ccc(Cl)cc2)C1NC(=O)CNC(=N)N (stereo not drawn) [Compound 162] | + (Indicates inhibition greater than . . . 50%) |
| CSC1OC(COCc2ccc(Cl)cc2)C(O)C(OCc2ccc3ccccc3c2)C1NC(=O)CN (stereo not drawn) [Compound 197] | + (Indicates inhibition greater than . . . 50%) |
| CSC1OC(COCc2ccc3ccccc3c2)C(O)C(OCc2ccc3ccccc3c2)C1NC(=O)CCNC(=N)N (stereo not drawn) [Compound 212] | + (Indicates inhibition greater than . . . 50%) |
| CSC1OC(COCc2ccccc2)C(O)C(OCc2ccc3ccccc3c2)C1NC(=O)CCNC(=N)N (stereo not drawn) [Compound 194] | + (Indicates inhibition greater than . . . 50%) |
| CSC1O[C@H](COCc2ccccc2)[C@@H](O)[C@H](OCc2cccc(N)c2)[C@H]1NC(=O)CCC1CNc2ccccc21 (stereo partly drawn) [Compound 320] | + (Indicates inhibition greater than . . . 50%) |
| CSC1OC(COCc2ccccc2)C(O)C(OCc2ccccc2)C1NC(=O)CCNC(=N)N (stereo not drawn) [Compound 122] | + (Indicates inhibition greater than . . . 50%) |
| COC[C@H]1OC(OCc2ccccc2)[C@H](NC(=O)CCNC(=N)N)[C@@H](OCc2ccc(-c3ccccc3)cc2)[C@@H]1O (stereo partly drawn) [Compound 6] | + (Indicates inhibition greater than . . . 50%) |
| CSC1OC(COCc2ccc(-c3ccccc3)cc2)C(O)C(OCc2ccccc2)C1NC(=O)CCN (stereo not drawn) [Compound 133] | + (Indicates inhibition greater than . . . 50%) |
| CSC1OC(COCc2ccc(-c3ccccc3)cc2)C(O)C(OCc2ccc(-c3ccccc3)cc2)C1NC(=O)CCNC(=N)N (stereo not drawn) [Compound 182] | + (Indicates inhibition greater than . . . 50%) |
| COC1C(O)C(COCc2ccc(-c3ccccc3)cc2)OC(OCc2ccc(Cl)cc2)C1NC(=O)CCCNC(=N)N (stereo not drawn) [Compound 86] | + (Indicates inhibition greater than . . . 50%) |
| CSC1OC(COCc2ccc(-c3ccccc3)cc2)C(O)C(OCc2ccc(Cl)cc2)C1NC(=O)CN (stereo not drawn) [Compound 155] | + (Indicates inhibition greater than . . . 50%) |
| CSC1OC(COCc2ccc3ccccc3c2)C(O)C(OCc2ccc(Cl)cc2)C1NC(=O)CCCN (stereo not drawn) [Compound 165] | + (Indicates inhibition greater than . . . 50%) |
